# Assay results as given in patent US20100215594A1, “Tyrosinase Inhibitors” (priority 2007, published 2010).
# Biological target: tyrosinase from fungi
# Assay: Tyrosinase assay (L-DOPA as substrate, optical density at 470 nm)
# Format: biochemical
# Settings: tyrosinase from fungi (16U, Fluka), phosphate buffer pH 6.8, 10 min pre-incubation at 25° C., read-out: IC50 (concentration of the test compound at which 50% of the tyrosinase activity is inhibited)
# Procedure: The action of the compounds I or Ia as skin lighteners is tested through their ability to inhibit the enzyme tyrosinase and thus to suppress melanin synthesis.
# The inhibiting action of the compounds of the formula I or Ia against tyrosinase was assessed using tyrosinase from fungi and L-DOPA as substrate.
# The compounds (1) and (2), as obtained in Example 1, and L-dopa are pre-incubated for 10 minutes at 25° C. in phosphate buffer (pH 6.8), and tyrosinase from fungi (16U) (Fluka) is subsequently added. The optical density of the samples is measured at 470 nm against a negative control (without active compound). Kojic acid and 4-hexylresorcinol are also tested as tyrosinase reference, i.e. positive control.
# The results are shown in the following table, expressed in the IC50 value (the concentration of the test compound at which 50% of the tyrosinase activity is inhibited).
row,IC50,SMILES
1,0.5 µM,CCCCCCc1ccc(O)cc1O [4-Hexylresorcinol]
2,19 µM,"CCCCCCc1ccc(OC(=O)C2CCC(=O)N2)cc1O (stereo not drawn) [(1), 4-Hexyl-3-hydroxyphenyl 2-pyrrolidinone-5-carboxylate]"

row,SMILES,IC50
1,O=c1cc(CO)occ1O [Kojic acid],12 µM
